From the METLIN SMRT retention time set (Domingo-Almenara et al. 2019)

Experiment: gradient 5% acetonitrile 3 min, to 50% in 2 min, to 85% in 15 min, held 3 min, 100 µL/min
Conditions: column: Zorbax Extend-C18 2.1 x 50 mm; eluents: water / acetonitrile, 0.1% formic acid
Method in brief: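 Standards, all pure, were combined into mixtures of ~100 molecules and run at 100 μL/min on a Zorbax Extend-C18 column (2.1 × 50 mm, 1.8 μm) with water and acetonitrile, each containing 0.1% formic acid. A coupled quadrupole time-of-flight mass spectrometer operated in positive and negative ionization mode. Retention time values come from computationally picked adduct peaks, each inspected manually.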

Row | Compound | RP-LC retention time [s]
1 | COc1cccc(OCC(O)CN2CCN(Cc3ccccc3)CC2)c1 (stereo unspecified) | 610
2 | COCCN1C(=O)c2ccccc2C(C(=O)NCCCN2CCCC(C)C2)C1c1cccs1 (stereo unspecified) | 643
3 | COc1ccc(C2Cn3cnc(C(=O)N4CCC(C(=O)NC5CCC(C)CC5)CC4)c3CO2)cc1 (stereo unspecified) | 821
4 | Cc1cc(Cl)ccc1NC(=O)c1ncn2c1C(=O)N(C1CC1)C(C)(C(=O)NC1CCCC1)C2 (stereo unspecified) | 879
5 | Cn1c(=O)c(N2CCN(C(=O)c3cccc(F)c3)CC2)nc2ccccc21 | 864
6 | Cc1nc2cc(-c3noc(-c4ccc(C#N)cc4)n3)ccc2n(C)c1=O | 965
7 | CC(C)n1c(=O)sc2cc(S(=O)(=O)N3CCC(C(=O)Nc4ccc(Cl)cc4)CC3)ccc21 | 1050
8 | O=C(NCCNC(=O)c1ccc2c(c1)OCO2)c1ccc(NC(=O)C2CC2)cc1 | 650
9 | Cc1nc(-c2noc(-c3ccc(F)cc3)n2)cn1CC(=O)Nc1cccc(F)c1 | 897
10 | Cc1cc2c(cc1S(=O)(=O)N1CCCC1C(=O)N1CCN(c3ccccc3)CC1)OC(C)C(=O)N2 (stereo unspecified) | 814
11 | Cc1ccc(-c2noc(-c3nnn(Cc4nc(-c5cccc(Cl)c5)oc4C)c3C)n2)cc1 | 908
12 | CCc1nc(-c2csc(S(=O)(=O)N3CCC(C(=O)Nc4ccc(Cl)cc4F)CC3)c2)no1 | 1060
13 | COCCOC(=O)c1c(C)oc2ccc(OC(=O)C3CC3)cc12 | 941
14 | COc1ccc(NS(=O)(=O)c2ccc3c(c2)C(=O)N(C)c2ncccc2O3)c(C)c1 | 898
15 | CO[C@@H]1C(O)[C@H](O[C@H]2CC[C@@]3(C=O)[C@H](CC[C@@H]4[C@@H]3CC[C@]3(C)[C@@H](C5=CC(=O)OC5)CC[C@]43O)C2)OC(C)[C@@H]1O (stereo partly specified) | 772
16 | CCCN1CCN(C(=O)C2CCCN(S(=O)(=O)c3cc(-c4noc(CC)n4)cs3)C2)CC1 (stereo unspecified) | 665
17 | Cc1ccccc1Nc1c(-c2ccc(Cl)cc2)nc2ccc(Cl)cn12 | 1050
18 | CC1(C)CC(=O)c2cn(-c3ccccc3)c(=O)c(C(=O)Nc3cccnc3)c2C1 | 700
19 | CCCN(C(=O)CC)c1nc(-c2ccccc2)cs1 | 1210
20 | CCc1noc(NC(C)=O)c1-c1ccc(OC)c(S(=O)(=O)Nc2cc(C)cc(C)c2)c1 | 852

Row | Compound | RP-LC retention time [s]
21 | COCCn1nnnc1C1CC2(CCOCC2)C(=O)N1Cc1ccc(SC)cc1 (stereo unspecified) | 777
22 | CC(=O)c1cccc(NC(=O)Cn2c(=O)n(-c3ccccc3)c(=O)c3c2cc(C)n3C)c1 | 763
23 | Cc1ccc(C)c2c(=O)c3c([nH]c12)CCN(CC(=O)Nc1ccccc1Cl)C3 | 656
24 | CN(C)c1nc2ncn3c(=O)n(CC(=O)NCCc4ccc(Cl)cc4)nc3c2s1 | 706
25 | CCOC(=O)c1nc(N2CCOCC2)c2c(-c3ccccc3Cl)noc2n1 | 934
26 | CC(C)(C)c1cc(NCc2ccccn2)n2ncc(-c3ccc(Cl)cc3)c2n1 | 841
27 | COCc1nnc([C@@H]2CC(F)(F)CN2Cc2ccc(OC)cc2)o1 | 837
28 | CNC(=O)c1ccccc1Nc1cc(Nc2ccc(N3CCOCC3)cc2OC)ncc1C(F)(F)F | 764
29 | O=C(Nc1cc(-c2ccccc2)nn1CCO)c1ccsc1 | 726
30 | Cc1nc(CSc2ccc(-c3cccc([N+](=O)[O-])c3)nn2)cs1 | 817
31 | COC(=O)c1nc(NC(=O)Cn2nc3c(cc2=O)CCCC3)sc1C(C)C | 805
32 | Cc1oc2ncnc(N3CCCC(C(=O)NCc4cccnc4)C3)c2c1C (stereo unspecified) | 593
33 | Cc1ccnc(NC(c2cccs2)c2ccc3cccnc3c2O)c1 (stereo unspecified) | 676
34 | CO[C@H]1CN(C(C)C)[C@H]1C1CCN(C(=O)C(C)C)CC1 | 557
35 | CCOc1ccc(-c2nc3ncccn3c2NCc2ccc(C)cc2)cc1OC | 773
36 | C=CCNC(=O)c1cnn(-c2cc(-c3nc(C(C)C)no3)ccn2)c1C | 776
37 | Cc1cc(C)cc(NC(=O)N2CCN(c3ccc(=O)n(-c4ccccc4)n3)CC2)c1 | 832
38 | Cc1oc2cc3oc(=O)c(CC(=O)N4CCC(C(N)=O)CC4)c(C)c3cc2c1C | 697
39 | CCN(CC)c1ccc(NC(=O)C2CCCN(c3nc4ccccc4nc3C(F)(F)F)C2)c(C)c1 (stereo unspecified) | 825
40 | CN(Cc1ccco1)C(=O)c1ccc2ccnc(N3CCN(c4ccc(Cl)cc4)CC3)c2c1 | 917

Row | Compound | RP-LC retention time [s]
41 | Cc1ccc(C(=O)NCCc2cn(C)c3ncccc23)cc1F | 720
42 | Cc1ccc(S(=O)(=O)N(C)CC2CCOC2)cc1Cl (stereo unspecified) | 895
43 | CCn1cc(C(=O)Nc2ccc(C)c(F)c2)c2cccnc21 | 920
44 | CNC(=O)c1c(NC(=O)c2ccc(C)cc2)sc2c1CCC2 | 1070
45 | Cn1nc(-c2nnc(-c3ccc(F)cc3)o2)c2c1CCN(S(=O)(=O)c1cc(F)ccc1F)C2 | 958
46 | CN(C)c1cc(OC2CCN(C(=O)c3cnn4cccnc34)C2)ncn1 (stereo unspecified) | 578
47 | Cc1ccc(NC(=O)N2CCCC2c2nncn2-c2ccccc2)c(Cl)c1 (stereo unspecified) | 794
48 | CCCn1c(=O)c(-c2ccc(C(=O)NCCCN3CCCC3)cc2)nc2ccccc21 | 653
49 | Cc1nc2cccnc2n1C1CCN(C(=O)Nc2ccc3c(c2)OCO3)CC1 | 613
50 | Cc1nnc(-c2ccc3ccn(CC(=O)NCc4ccc(N(C)C)cc4)c3c2)o1 | 632
51 | CCc1cc(C(=O)N2CCN(c3ccccn3)CC2)nc2cc(-c3cccs3)nn12 | 706
52 | CCn1cc(-c2nc(C(=O)Nc3cc(F)ccc3Cl)cs2)c2cccnc21 | 1330
53 | CN1CCN(c2cc(C(=O)O)c3cc(F)ccc3n2)CC1 | 551
54 | Cc1ccccc1N1OC2C(=O)N(c3ccc(F)cc3)C(=O)C2C1c1ccncc1 (stereo unspecified) | 671
55 | CCOC(=O)c1ccccc1NC(=O)Cn1nc2n(c1=O)CCCCC2 | 821
56 | CC(C)NC(=O)Cc1cccn1-c1cccc(Cl)c1 | 870
57 | Cc1noc([C@@H]2CN(C(=O)c3ccc(Br)o3)C[C@H]2CO)n1 | 657
58 | Cc1ccc(NC(=O)C2CCN(S(=O)(=O)c3cn(C(C)C)cn3)CC2)cc1F | 823
59 | COc1ccc(Cl)cc1NC(=O)CSc1nccc(N2CCN(c3cc(C)ccc3C)CC2)n1 | 1160

The next lines start with the values.

Row | RP-LC retention time [s] | Compound
60 | 818 | O=C(c1cccs1)N1CCCCC1c1nc(-c2ccncc2)no1 (stereo unspecified)
61 | 1200 | Cc1ccccc1CNC(=O)C1CCCN(c2nccnc2Sc2ccccc2)C1 (stereo unspecified)
62 | 695 | Cc1nc2cc(N3CCCC(C(=O)Nc4ccc5c(c4)OCO5)C3)cnc2nc1C (stereo unspecified)
63 | 793 | O=C(Cn1ccc2sccc2c1=O)Nc1cccc(Br)c1
64 | 942 | O=C(Nc1ccc(SCc2ccccc2F)nn1)c1cccs1
65 | 676 | CCn1c(=O)c(-c2noc(C(=O)N3CCN(c4ccccn4)CC3)n2)nn(-c2ccc(F)cc2)c1=O
66 | 902 | COc1cc(C2OC(c3ccc(F)cc3)=NN2C(C)=O)cc(OC)c1OC (stereo unspecified)
67 | 609 | CO[C@H]1CN(C2CCN(S(=O)(=O)c3ccc(C#N)cc3)CC2)[C@H]1c1cccnc1
68 | 810 | O=C(Cn1nc2c(Oc3cccc(F)c3)nccn2c1=O)Nc1ccccc1
69 | 954 | COC(=O)c1ccc(N2C=C(C#N)S(=O)(=O)c3ccc(Cl)cc32)cc1
70 | 892 | CCS(=O)(=O)N1CC(=O)N(c2cc(C)cc(C)c2)C(C)(C(=O)NCc2ccc(F)cc2)C1 (stereo unspecified)
71 | 925 | CCn1cc(-c2nc(C)c(C(=O)NCc3ccc4c(c3)OCO4)s2)c2cccnc21
72 | 740 | COCCN1CCn2cc(S(=O)(=O)Nc3ccc(C)cc3F)cc2C1=O
73 | 796 | CCCCN(CC)C(=O)C1CCCN(c2ccc(-c3ccc(C)cc3)nn2)C1 (stereo unspecified)
74 | 644 | O=C(Cn1cnc2nc(N3CCCC(C(=O)NC4CC4)C3)sc2c1=O)NCc1cccs1 (stereo unspecified)
75 | 722 | CN(CC1CCOC1)C(=O)Nc1ccccc1Cl (stereo unspecified)
76 | 964 | COc1cc(C)c(C)cc1S(=O)(=O)NCC1CCN(C(=O)Oc2ccccc2)CC1
77 | 671 | CN1C(=O)CCc2cc(NC(=O)c3cccs3)ccc21
78 | 1020 | COc1ccc(Cl)cc1NC(=O)Cn1cc2c(n1)CCCC2
79 | 702 | O=C1COc2ccc(S(=O)(=O)N3CCC(C(=O)NCc4cccs4)CC3)cc2N1
80 | 947 | CCn1c(=O)n(CC)c2cc(NC3=C(C(=O)Nc4ccccc4)S(=O)(=O)c4ccccc43)ccc21
81 | 893 | COc1cccc(-n2ccn3cc(-c4ccc(Br)cc4)nc3c2=O)c1
82 | 1270 | CCN(C(=O)c1ccc(OC)c(OC)c1)c1nc(-c2ccc(Br)cc2)cs1
83 | 838 | CCC(=O)N1CCc2cc(CNS(=O)(=O)c3ccc(F)cc3)ccc21
84 | 916 | CSc1ccc(NC(=O)NC2CCN(c3cc(C)cc(C)c3)C2=O)cc1 (stereo unspecified)
85 | 636 | CCc1ccc2[nH]c3c(c(=O)c2c1)CN(CC(=O)Nc1ccc(OC)c(Cl)c1)CC3
86 | 929 | CCOc1ccc(-c2csc3c(=O)n(Cc4ccc(N5CCCC5=O)cc4)cnc23)cc1OCC
